{"source": "patent US5216005A", "about": "“Immunosuppressive analogues and derivatives of succinylacetone” (priority 1990, dated 1993)", "key": {"[1]": {"test_system": "IL-2 (human lymphoid cells)", "test": "IL-2 production in primary mixed lymphocyte reaction (HT-2 cell assay)", "type": "cell-based", "parameters": "IL-2: unit not given here", "settings": "for IL-2: 1° MLR", "description": "Derivatives of succinylacetone were tested for immunosuppressive activity in several different types of assay systems. The first consisted of measuring the amounts of interleukin-2 (IL-2), and interferon-γ (IFN-γ) produced by human lymphoid cells in a mixed lymphocyte reaction. Low levels of these molecules in the reaction mixture indicate that the immune system is being suppressed by the subject succinylacetone derivatives. IL-2 was measured by enumerating the number of viable HT-2 cells found after an 18-24 hours period. HT-2 cells are a mouse IL-2 dependent cell line which die in the absence of IL-2. The assay is described by Gillis et al., J. of Immunol. […] The mixed lymphocyte reaction assay can be carried out by techniques well known to those skilled in the art. L. Hudson and F. C. Huy, Practical Immunology, p. […] Briefly this consists of isolating lymphocytes from human peripheral blood by standard density gradient centrifugation techniques from two separate individuals. Approximately 2×10^5 lymphocytes of each individual are combined to yield a total of 4×10^5 lymphocytes per culture. All procedures are carried out under sterile conditions, and the lymphocytes are isolated and kept in physiologically compatible solutions. To the mixture of lymphocytes is added a desired amount of an appropriate succinylacetone derivative, and after different times an aliquot of the mixture is removed and assayed for IL-2 or IFN-γ, or ^[…] is measured."}, "[2]": {"test_system": "IFN-γ (human lymphoid cells)", "test": "IFN-γ production in primary mixed lymphocyte reaction (WISH cells/EMC virus assay)", "type": "cell-based", "parameters": "IFN-γ: unit not given here", "settings": "for IFN-γ: 1° MLR", "description": "Derivatives of succinylacetone were tested for immunosuppressive activity in several different types of assay systems. The first consisted of measuring the amounts of interleukin-2 (IL-2), and interferon-γ (IFN-γ) produced by human lymphoid cells in a mixed lymphocyte reaction. Low levels of these molecules in the reaction mixture indicate that the immune system is being suppressed by the subject succinylacetone derivatives.\nIFN-γ was determined by measuring the amount of protection conveyed on human WISH cells against the cytopathic effects of encephalomyocarditis virus (EMC). This assay is described by I. A. Braude, J. of Immunol. Methods 63:237 (1983). Both publications are hereby incorporated by reference.\nThe mixed lymphocyte reaction assay can be carried out by techniques well known to those skilled in the art. L. Hudson and F. C. Huy, Practical Immunology, p. 260, Blackwell Scientific Publications (1976). Briefly this consists of isolating lymphocytes from human peripheral blood by standard density gradient centrifugation techniques from two separate individuals. Approximately 2×10^5 lymphocytes of each individual are combined to yield a total of 4×10^5 lymphocytes per culture. All procedures are carried out under sterile conditions, and the lymphocytes are isolated and kept in physiologically compatible solutions. To the mixture of lymphocytes is added a desired amount of an appropriate succinylacetone derivative, and after different times an aliquot of the mixture is removed and assayed for IL-2 or IFN-γ, or ^3 H-T is measured."}, "[3]": {"test_system": "human lymphocytes", "test": "phytohemagglutinin (PHA) stimulation assay, tritiated thymidine uptake", "type": "cell-based", "settings": "for IC50: Homo sapiens, Lymphocyte, read-out: concentration causing 50% inhibition of PHA stimulation", "description": "A second assay widely used to study immune responsiveness is mitogenic stimulation of thymocytes with antigenic substances of plant origin. The most widely used plant molecule is phytohemagglutinin (PHA).\nThe procedure for carrying out the phytohaemagglutinin assay is also well known to those skilled in the art. Briefly, it consists of isolating human lymphocytes as described above, and incubating about 1.0×10^6 cells per ml in a suitable physiological solution with phytohaemagglutinin, and the appropriate concentration of succinylacetone-proline-NH-PEG. Tritiated thymidine is added 48 hours later and allowed to incubate for twenty-four hours before the cells are counted."}, "[4]": {"test_system": "adjuvant induced arthritis", "test": "adjuvant induced arthritis in rats, overall arthritis score; intraarticular right paw, per kg: succinylacetone 325 μg, methyl ester 150 μg, 4-acetyl-5-oxohexanoate 560 μg", "type": "in vivo, rat"}}, "note": "Read-outs that look alike come from different tables or passages of the source."}
{"smiles": "COC(=O)CCC(=O)CC(C)=O", "note": "[Succinylacetone Methyl Ester, methyl 4-6-dioxoheptanoate]", "values": [{"measurement": "IL-2", "setting": "[1]; Exp I, 3 μM", "result": 41}, {"measurement": "IL-2", "setting": "[1]; Exp I, 9 μM", "result": 28}, {"measurement": "IL-2", "setting": "[1]; Exp I, 27 μM", "result": 25}, {"measurement": "IL-2", "setting": "[1]; Exp I, 81 μM", "result": 24}, {"measurement": "IL-2", "setting": "[1]; Exp I, 244 μM", "result": 19}, {"measurement": "IL-2", "setting": "[1]; Exp I, 733 μM", "result": 14}, {"measurement": "IL-2", "setting": "[1]; Exp I, 2.2 mM", "result": "< 6"}, {"measurement": "IL-2", "setting": "[1]; Exp I, 6.7 mM", "result": "< 6"}, {"measurement": "IL-2", "setting": "[1]; Exp I, 20 mM", "result": "< 6"}, {"measurement": "IL-2", "setting": "[1]; Exp II, 3 μM", "result": 34}, {"measurement": "IL-2", "setting": "[1]; Exp II, 9 μM", "result": 38}, {"measurement": "IL-2", "setting": "[1]; Exp II, 27 μM", "result": 34}, {"measurement": "IL-2", "setting": "[1]; Exp II, 81 μM", "result": 28}, {"measurement": "IL-2", "setting": "[1]; Exp II, 244 μM", "result": 28}, {"measurement": "IL-2", "setting": "[1]; Exp II, 733 μM", "result": 23}, {"measurement": "IL-2", "setting": "[1]; Exp II, 2.2 mM", "result": "< 8"}, {"measurement": "IL-2", "setting": "[1]; Exp II, 6.7 mM", "result": "< 8"}, {"measurement": "IL-2", "setting": "[1]; Exp II, 20 mM", "result": "< 8"}, {"measurement": "IC50", "setting": "[1]; Homo sapiens, HT2, read-out: concentration that inhibits IL-2 production by about 50%", "result": "~733", "unit": "µM"}, {"measurement": "IFN-γ", "setting": "[2]; Exp I, 3 μM", "result": 2558}, {"measurement": "IFN-γ", "setting": "[2]; Exp I, 9 μM", "result": 1860}, {"measurement": "IFN-γ", "setting": "[2]; Exp I, 27 μM", "result": 2713}, {"measurement": "IFN-γ", "setting": "[2]; Exp I, 81 μM", "result": 1628}, {"measurement": "IFN-γ", "setting": "[2]; Exp I, 244 μM", "result": 1575}, {"measurement": "IFN-γ", "setting": "[2]; Exp I, 733 μM", "result": 1890}, {"measurement": "IFN-γ", "setting": "[2]; Exp I, 2.2 mM", "result": 788}, {"measurement": "IFN-γ", "setting": "[2]; Exp I, 6.7 mM", "result": "< 630"}, {"measurement": "IFN-γ", "setting": "[2]; Exp I, 20 mM", "result": "< 630"}, {"measurement": "IFN-γ", "setting": "[2]; Exp II, 3 μM", "result": 1313}, {"measurement": "IFN-γ", "setting": "[2]; Exp II, 9 μM", "result": 1000}, {"measurement": "IFN-γ", "setting": "[2]; Exp II, 27 μM", "result": 1032}, {"measurement": "IFN-γ", "setting": "[2]; Exp II, 81 μM", "result": 1094}, {"measurement": "IFN-γ", "setting": "[2]; Exp II, 244 μM", "result": 938}, {"measurement": "IFN-γ", "setting": "[2]; Exp II, 733 μM", "result": 688}, {"measurement": "IFN-γ", "setting": "[2]; Exp II, 2.2 mM", "result": "< 375"}, {"measurement": "IFN-γ", "setting": "[2]; Exp II, 6.7 mM", "result": "< 375"}, {"measurement": "IFN-γ", "setting": "[2]; Exp II, 20 mM", "result": "< 375"}, {"measurement": "IC50", "setting": "[2]; Homo sapiens, Lymphocyte, primary MLR, read-out: concentration that inhibits IFN-γ production by about 50%", "result": "~733", "unit": "µM"}, {"measurement": "IC50", "setting": "[3]; one assay", "result": "103 to 309", "unit": "µM"}, {"measurement": "IC50", "setting": "[3]; second assay", "result": "~103", "unit": "µM"}, {"measurement": "PHA stimulation, cpm ± SD", "setting": "[3]; first experiment, 3.8 μM", "result": 20292, "unit": "cpm"}, {"measurement": "PHA stimulation, cpm ± SD", "setting": "[3]; first experiment, 11 μM", "result": 18100, "unit": "cpm"}, {"measurement": "PHA stimulation, cpm ± SD", "setting": "[3]; first experiment, 34 μM", "result": 16549, "unit": "cpm"}, {"measurement": "PHA stimulation, cpm ± SD", "setting": "[3]; first experiment, 103 μM", "result": 17595, "unit": "cpm"}, {"measurement": "PHA stimulation, cpm ± SD", "setting": "[3]; first experiment, 309 μM", "result": 5927, "unit": "cpm"}, {"measurement": "PHA stimulation, cpm ± SD", "setting": "[3]; first experiment, 962 μM", "result": 565, "unit": "cpm"}, {"measurement": "PHA stimulation, cpm ± SD", "setting": "[3]; first experiment, 2.8 mM", "result": 126, "unit": "cpm"}, {"measurement": "PHA stimulation, cpm ± SD", "setting": "[3]; first experiment, 25 mM", "result": 113, "unit": "cpm"}, {"measurement": "PHA stimulation, cpm ± SD", "setting": "[3]; first experiment, 83 mM", "result": 79, "unit": "cpm"}, {"measurement": "PHA stimulation, cpm ± SD", "setting": "[3]; second experiment, 3.8 μM", "result": 37936, "unit": "cpm"}, {"measurement": "PHA stimulation, cpm ± SD", "setting": "[3]; second experiment, 11 μM", "result": 28645, "unit": "cpm"}, {"measurement": "PHA stimulation, cpm ± SD", "setting": "[3]; second experiment, 34 μM", "result": 28614, "unit": "cpm"}, {"measurement": "PHA stimulation, cpm ± SD", "setting": "[3]; second experiment, 103 μM", "result": 17733, "unit": "cpm"}, {"measurement": "PHA stimulation, cpm ± SD", "setting": "[3]; second experiment, 309 μM", "result": 5292, "unit": "cpm"}, {"measurement": "PHA stimulation, cpm ± SD", "setting": "[3]; second experiment, 962 μM", "result": 6949, "unit": "cpm"}, {"measurement": "PHA stimulation, cpm ± SD", "setting": "[3]; second experiment, 2.8 mM", "result": 65, "unit": "cpm"}, {"measurement": "PHA stimulation, cpm ± SD", "setting": "[3]; second experiment, 25 mM", "result": 112, "unit": "cpm"}, {"measurement": "PHA stimulation, cpm ± SD", "setting": "[3]; second experiment, 83 mM", "result": 107, "unit": "cpm"}, {"measurement": "overall arthritis score", "setting": "[4]; Exp. I (treated from same day), day 14", "result": "2.4 ± 2.5"}, {"measurement": "overall arthritis score", "setting": "[4]; Exp. I (treated from same day), day 16", "result": "2.8 ± 2.4"}, {"measurement": "overall arthritis score", "setting": "[4]; Exp. I (treated from same day), day 18", "result": "3.4 ± 1.9"}, {"measurement": "overall arthritis score", "setting": "[4]; Exp. I (treated from same day), day 20", "result": "6.4 ± 3.6"}, {"measurement": "overall arthritis score", "setting": "[4]; Exp. I (treated from same day), day 22", "result": "6.8 ± 4.0"}, {"measurement": "overall arthritis score", "setting": "[4]; Exp. I (treated from same day), day 24", "result": "7.2 ± 4.1"}, {"measurement": "overall arthritis score", "setting": "[4]; Exp. I (treated from same day), day 26", "result": "6.2 ± 3.7"}, {"measurement": "overall arthritis score", "setting": "[4]; Exp. II (treated from day 4), day 14", "result": "1.6 ± 2.6"}, {"measurement": "overall arthritis score", "setting": "[4]; Exp. II (treated from day 4), day 16", "result": "2 ± 2.8"}, {"measurement": "overall arthritis score", "setting": "[4]; Exp. II (treated from day 4), day 18", "result": "3.2 ± 4.0"}, {"measurement": "overall arthritis score", "setting": "[4]; Exp. II (treated from day 4), day 20", "result": "4.0 ± 4.6"}, {"measurement": "overall arthritis score", "setting": "[4]; Exp. II (treated from day 4), day 22", "result": "4.8 ± 4.1"}, {"measurement": "overall arthritis score", "setting": "[4]; Exp. II (treated from day 4), day 24", "result": "4.8 ± 4.1"}, {"measurement": "overall arthritis score", "setting": "[4]; Exp. II (treated from day 4), day 26", "result": "5.6 ± 4.7"}, {"measurement": "overall arthritis score", "setting": "[4]; Exp. III (treated from day 14), day 14", "result": "1.2 ± 1.8"}, {"measurement": "overall arthritis score", "setting": "[4]; Exp. III (treated from day 14), day 16", "result": "1.4 ± 1.3"}, {"measurement": "overall arthritis score", "setting": "[4]; Exp. III (treated from day 14), day 18", "result": "1.4 ± 2.2"}, {"measurement": "overall arthritis score", "setting": "[4]; Exp. III (treated from day 14), day 20", "result": "4.8 ± 3.8"}, {"measurement": "overall arthritis score", "setting": "[4]; Exp. III (treated from day 14), day 22", "result": "4.4 ± 3.6"}, {"measurement": "overall arthritis score", "setting": "[4]; Exp. III (treated from day 14), day 24", "result": "4.4 ± 3.6"}, {"measurement": "overall arthritis score", "setting": "[4]; Exp. III (treated from day 14), day 26", "result": "3.0 ± 3.3"}, {"measurement": "effect on arthritis", "setting": "[4]; comparison of treatment schedules, in words", "result": "most effective when it is administered 14 days after induction of the disease"}]}
